The results in this text go back to patent US20250230193A1, “CYCLIC COMPOUND HAVING SELECTIVE KRAS INHIBITORY EFFECT ON HRAS AND NRAS” (CHUGAI SEIYAKU KABUSHIKI KAISHA, priority 2022, published 2025).

SMILES strings stand for the structures. Where a SMILES comes first, the peptide text is derived from it. Bridges are numbered along the chain shown (N, C = ends). [ ]: non-standard residue; d: D form. The star is where a group is joined. hPhe(3-Cl-4-CF3) = N[C@@H](CCc1ccc(C(F)(F)F)c(Cl)c1)C(=O)O; NPrPhe(4-CF3) = CCCN[C@@H](Cc1ccc(C(F)(F)F)cc1)C(=O)O; NMeGly(cPent) = CN[C@H](C(=O)O)C1CCCC1; Pro(4,4-F2) = O=C(O)[C@@H]1CC(F)(F)CN1; NMeD = CN[C@@H](CC(=O)O)C(=O)O; NMeL = CN[C@@H](CC(C)C)C(=O)O; Morpholide = C1CN(*)CCO1; Aze = O=C(O)[C@@H]1CCN1; Ac4c = NC1(C(=O)O)CCC1; Sar = CNCC(=O)O

The target in assay [1] is GDP-bound NRAS wild-type protein (Homo sapiens, UniProt P01111). The experiment in a line: Binding to NRAS by surface plasmon resonance (SPR), Single Cycle Kinetics. The settings on record: SPR.
Sequence of GDP-bound NRAS wild-type protein (P01111 whole entry): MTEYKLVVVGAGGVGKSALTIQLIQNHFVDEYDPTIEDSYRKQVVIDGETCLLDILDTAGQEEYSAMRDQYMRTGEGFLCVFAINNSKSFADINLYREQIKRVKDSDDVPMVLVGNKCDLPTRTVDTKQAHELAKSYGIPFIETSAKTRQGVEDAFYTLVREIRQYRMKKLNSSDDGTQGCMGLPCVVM
For assay [2], the target named is GDP-bound HRAS wild-type protein (Homo sapiens, UniProt P01112). The assay can be described thus: Binding to HRAS by surface plasmon resonance (SPR), Single Cycle Kinetics. Conditions: SPR. Background: Surface plasmon resonance follows binding to a sensor surface in real time, without labels.
Sequence of GDP-bound HRAS wild-type protein (P01112 whole entry): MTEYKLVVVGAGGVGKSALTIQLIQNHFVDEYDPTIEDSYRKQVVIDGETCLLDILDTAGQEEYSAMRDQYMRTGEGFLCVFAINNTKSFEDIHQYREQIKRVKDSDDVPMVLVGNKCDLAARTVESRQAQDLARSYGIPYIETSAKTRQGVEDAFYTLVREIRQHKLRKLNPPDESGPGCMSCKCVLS
The mark [3] stands for this setting: KD ratio, GDP-bound NRAS wild-type vs GDP-bound KRAS wild-type.
Setting [4] is: KD ratio, GDP-bound HRAS wild-type vs GDP-bound KRAS wild-type.

Turning to `CCO[C@@H]1C[C@H]2C(=O)NC3(CCC3)C(=O)N(C)[C@@H](C(CC)CC)C(=O)N3CCC[C@@H]3CC(=O)N(C)[C@@H](CC3CC3)C(=O)N[C@@H]([C@@H](C)CC)C(=O)N(C)CC(=O)N(C)[C@H]3C/C=C\CCN(C3=O)[C@@H](Cc3ccc(C(F)(F)F)cc3)C(=O)N(C)CC(=O)N[C@@H](CCc3cc(F)c(C(F)(F)F)c(F)c3)C(=O)N2C1` [PP1612], in assay [1] (setting [3]), the “NRAS/KRAS (ratio of KD value for NRAS to KD value for KRAS)” value was “B (a compound having 3 or more and less than 10 is denoted as B)”. Further, the “HRAS/KRAS (ratio of KD value for HRAS to KD value for KRAS)” value in assay [2] (setting [4]) was “B (a compound having 3 or more and less than 10 is denoted as B)”.
As for `CC[C@H](C)[C@@H]1NC(=O)[C@H](CC(C)C)N(C)C(=O)C[C@@H](C(=O)N2CCOCC2)N(C)C(=O)[C@H](C2CCCC2)N(C)C(=O)C2(CCCC2)NC(=O)[C@@H]2CCCN2C(=O)[C@H](CCc2ccc(C(F)(F)F)c(Cl)c2)NC(=O)CN(C)C(=O)[C@H](Cc2ccccc2)N2CCCC[C@@H](C2=O)N(C)C(=O)CN(C)C1=O` [PP0529], the “NRAS/KRAS (ratio of KD value with respect to GDP-bound NRAS wild-type protein to KD value with respect to KRAS)” value in assay [1] (KD ratio NRAS/KRAS) is “C (A compound having a KD ratio of 0.1 or more and less than 3 is denoted as C)”. In addition, the “HRAS/KRAS (ratio of KD value with respect to GDP-bound HRAS wild-type protein to KD value with respect to KRAS)” value in assay [2] (KD ratio HRAS/KRAS) was “B (a compound having 3 or more and less than 10 is denoted as B)”.
In the case of `CCC[C@H]1C(=O)N[C@@H]([C@@H](C)CC)C(=O)N(C)CC(=O)N(C)[C@H]2C/C=C\CCN(C2=O)[C@@H](Cc2ccc(C(F)(F)F)cc2)C(=O)N(C)CC(=O)N[C@@H](CCc2cc(F)c(C(F)(F)F)c(F)c2)C(=O)N2C[C@H](OCC)C[C@H]2C(=O)NC2(CCC2)C(=O)N(C)[C@@H](C2CCCC2)C(=O)N(C)[C@H](C(=O)N2CC3CCC(C2)O3)CC(=O)N1C` [PP1315], the “NRAS/KRAS (ratio of KD value for GDP-bound NRAS wild-type protein to KD value for KRAS)” value in assay [1] (KD ratio class) is given as “AA (a compound having 20 or more is denoted as AA)”. Also, the “HRAS/KRAS (ratio of KD value for GDP-bound HRAS wild-type protein to KD value for KRAS)” value in assay [2] (KD ratio class) is “A (a compound having 10 or more and less than 20 is denoted as A)”.
As to `CCCN1C(=O)CN(C)C(=O)[C@@H]2CCN2C(=O)[C@H]([C@@H](C)CC)NC(=O)[C@H](CC(C)C)N(C)C(=O)C[C@@H](C(=O)N2CCOCC2)N(C)C(=O)[C@H](C2CCCC2)N(C)C(=O)C2(CCC2)NC(=O)[C@@H]2CC(F)(F)CN2C(=O)[C@H](CCc2ccc(C(F)(F)F)c(Cl)c2)NC(=O)CN(C)C(=O)[C@@H]1Cc1ccc(C(F)(F)F)cc1` [PP0404] ([NMeL]I[Aze][Sar][NPrPhe(4-CF3)][Sar][hPhe(3-Cl-4-CF3)][Pro(4,4-F2)][Ac4c][NMeGly(cPent)][NMeD]-Morpholide; lactam N-11), in assay [1] (KD ratio NRAS/KRAS), the “NRAS/KRAS (ratio of KD for GDP-bound NRAS wild-type to KD for KRAS)” value is “B (a compound having 3 or more and less than 10 is denoted as B)”. Moreover, in assay [2] (KD ratio HRAS/KRAS), the “HRAS/KRAS (ratio of KD for GDP-bound HRAS wild-type to KD for KRAS)” value was “C (A compound having a KD ratio of 0.1 or more and less than 3 is denoted as C)”.
As for `CCO[C@@H]1C[C@H]2C(=O)NC(C)(C)C(=O)N(C)[C@@H](C3CCCC3)C(=O)N(CC)[C@H](C(=O)N3CCOCC3)CC(=O)N(C)[C@@H](CC(C)C)C(=O)N[C@@H]([C@@H](C)CC)C(=O)N(C)CC(=O)N(C)[C@H]3CCCCCN(C3=O)[C@@H](Cc3ccc(C(F)(F)F)cc3)C(=O)N(C)CC(=O)N[C@@H](CCc3cc(F)c(C(F)(F)F)c(F)c3)C(=O)N2C1` [PP0958], the “NRAS/KRAS (ratio of KD value with respect to NRAS to KD value with respect to KRAS)” value in assay [1] (setting [3]) is “B (a compound having 3 or more and less than 10 is denoted as B)”. The “HRAS/KRAS (ratio of KD value with respect to HRAS to KD value with respect to KRAS)” value in assay [2] (setting [4]) is “B (a compound having 3 or more and less than 10 is denoted as B)”.
As for `CCO[C@@H]1C[C@H]2C(=O)NC3(CCC3)C(=O)N(C)[C@@H](C3CCCC3)C(=O)N(C)[C@H](C(=O)N(C)C)CC(=O)N(C)[C@@H](C)C(=O)N[C@@H]([C@@H](C)CC)C(=O)N(C)CC(=O)N(C)[C@H]3CCCCCN(C3=O)[C@@H](Cc3ccc(C(F)(F)F)cc3)C(=O)N(C)CC(=O)N[C@@H](CCc3cc(F)c(C(F)(F)F)c(F)c3)C(=O)N2C1` [PP0476], the “NRAS/KRAS (ratio of KD value with respect to GDP-bound NRAS wild-type protein to KD value with respect to KRAS)” value in assay [1] (KD ratio NRAS/KRAS) is “B (a compound having 3 or more and less than 10 is denoted as B)”. Besides, the “HRAS/KRAS (ratio of KD value with respect to GDP-bound HRAS wild-type protein to KD value with respect to KRAS)” value in assay [2] (KD ratio HRAS/KRAS) is “B (a compound having 3 or more and less than 10 is denoted as B)”.
